Reference: patent US12077503B2, “Substituted cyclic amides and their use as herbicides” (FMC CORPORATION, priority 2015, dated 2024)

Experiments:
Type in all cases: in vivo
rice (Oryra sativa) = test: Test B flooded paddy test; conditions: Oryza sativa, Flood, 250 g ai/ha; scale of 0 to 100 where 0 is no effect and 100 is complete control; read-out: Rice plant response rating
In short: (§1)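 Rating scale 0–100 (visual, vs untreated controls) after a 13–15 d greenhouse period; application to the flood layer, 3 cm above soil and maintained; plants at 2-leaf stage when treated.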

[1] = system: barnyardgrass (Echinochloa crus-galli); test: Test B flooded paddy test; conditions: Echinochloa crus-galli, Flood, 250 g ai/ha; scale of 0 to 100 where 0 is no effect and 100 is complete control; read-out: Barnyardgrass plant response rating
In short: as §1

[2] = system: ducksalad (Heteranthera limosa); test: Test B flooded paddy test; conditions: Heteranthera limosa, Flood, 250 g ai/ha; scale of 0 to 100 where 0 is no effect and 100 is complete control; read-out: Ducksalad plant response rating
In short: as §1

[3] = system: sedge, umbrella (small-flower umbrella sedge, Cyperus difformis); test: Test B flooded paddy test; conditions: Cyperus difformis, Flood, 250 g ai/ha; scale of 0 to 100 where 0 is no effect and 100 is complete control; read-out: Sedge, Umbrella plant response rating
In short: as §1

[4] = system: ragweed (common ragweed, Ambrosia elatior); test: Test A postemergence; conditions: Ambrosia artemisiifolia, post-emergence, 240 h, 125 g ai/ha, postemergence, visual injury rating after approximately 10 d; read-out: Ragweed plant response rating (0 to 100 scale, 0 no effect, 100 complete control)
In short: (§2)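 Visual injury scores from 0, no effect, to 100, complete control, were assigned versus untreated controls roughly 10 d after treatment in the greenhouse. Test chemicals, formulated with surfactant in a non-phytotoxic solvent, were applied to planted seeds as a preemergence soil spray or postemergence to one- to two-leaf plants 2 to 10 cm tall, in loam–sand soil.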

[5] = system: pigweed (Amaranthus retroflexus); test: Test A postemergence; conditions: Amaranthus retroflexus, post-emergence, 240 h, 125 g ai/ha, postemergence, visual injury rating after approximately 10 d; read-out: Pigweed plant response rating (0 to 100 scale, 0 no effect, 100 complete control)
In short: as §2

[6] = system: blackgrass (Alopecurus myosuroides); test: Test A postemergence; conditions: Alopecurus myosuroides, post-emergence, 240 h, 125 g ai/ha, postemergence, visual injury rating after approximately 10 d; read-out: Blackgrass plant response rating (0 to 100 scale, 0 no effect, 100 complete control)
In short: as §2

[7] = system: ryegrass, Italian (Italian ryegrass, Lolium multiflorum); test: Test A postemergence; conditions: Lolium multiflorum, post-emergence, 240 h, 125 g ai/ha, postemergence, visual injury rating after approximately 10 d; read-out: Ryegrass, Italian plant response rating (0 to 100 scale, 0 no effect, 100 complete control)
In short: as §2

corn (Zea mays) = test: Test A postemergence; conditions: Zea mays, post-emergence, 240 h, 125 g ai/ha, postemergence, visual injury rating after approximately 10 d; read-out: Corn plant response rating (0 to 100 scale, 0 no effect, 100 complete control)
In short: as §2

[8] = system: ragweed (common ragweed, Ambrosia elatior); test: Test A preemergence; conditions: Ambrosia artemisiifolia, pre-emergence, 240 h; for pest or weed control at 125 g/ha: 125 g ai/ha, preemergence, 0 to 100 scale where 0 is no effect and 100 is complete control, read-out: Ragweed plant response rating; for pest or weed control at 500 g/ha: 500 g ai/ha, Preemergence, visual injury vs untreated controls after approximately 10 d, read-out: Ragweed plant response rating (0 to 100 scale where 0 is no effect and 100 is complete control)
In short: as §2

[9] = system: barnyardgrass (Echinochloa crus-galli); test: Test A preemergence; conditions: Echinochloa crus-galli, pre-emergence, 240 h; for pest or weed control at 125 g/ha: 125 g ai/ha, preemergence, 0 to 100 scale where 0 is no effect and 100 is complete control, read-out: Barnyardgrass plant response rating; for pest or weed control at 500 g/ha: 500 g ai/ha, Preemergence, visual injury vs untreated controls after approximately 10 d, read-out: Barnyardgrass plant response rating (0 to 100 scale where 0 is no effect and 100 is complete control)
In short: as §2

[10] = system: pigweed (Amaranthus retroflexus); test: Test A preemergence; conditions: Amaranthus retroflexus, pre-emergence, 240 h; for pest or weed control at 125 g/ha: 125 g ai/ha, preemergence, 0 to 100 scale where 0 is no effect and 100 is complete control, read-out: Pigweed plant response rating; for pest or weed control at 500 g/ha: 500 g ai/ha, Preemergence, visual injury vs untreated controls after approximately 10 d, read-out: Pigweed plant response rating (0 to 100 scale where 0 is no effect and 100 is complete control)
Kochia (Kochia scoparia) = test: Test A preemergence; conditions: Bassia scoparia, pre-emergence, 240 h; for pest or weed control at 125 g/ha: 125 g ai/ha, preemergence, 0 to 100 scale where 0 is no effect and 100 is complete control, read-out: Kochia plant response rating; for pest or weed control at 500 g/ha: 500 g ai/ha, Preemergence, visual injury vs untreated controls after approximately 10 d, read-out: Kochia plant response rating (0 to 100 scale where 0 is no effect and 100 is complete control)
In short: as §2

[11] = system: ryegrass, Italian (Italian ryegrass, Lolium multiflorum); test: Test A preemergence; conditions: Lolium multiflorum, pre-emergence, 240 h; for pest or weed control at 125 g/ha: 125 g ai/ha, preemergence, 0 to 100 scale where 0 is no effect and 100 is complete control, read-out: Ryegrass, Italian plant response rating; for pest or weed control at 500 g/ha: 500 g ai/ha, Preemergence, visual injury vs untreated controls after approximately 10 d, read-out: Ryegrass, Italian plant response rating (0 to 100 scale where 0 is no effect and 100 is complete control)
In short: as §2

[12] = system: giant foxtail (Setaria faberii); test: Test A preemergence; conditions: Setaria faberi, pre-emergence, 240 h; for pest or weed control at 125 g/ha: 125 g ai/ha, preemergence, 0 to 100 scale where 0 is no effect and 100 is complete control, read-out: Foxtail, Giant plant response rating; for pest or weed control at 500 g/ha: 500 g ai/ha, Preemergence, visual injury vs untreated controls after approximately 10 d, read-out: Foxtail, Giant plant response rating (0 to 100 scale where 0 is no effect and 100 is complete control)
In short: as §2

For `Cc1c(F)ccc([C@H]2CN(C)C(=O)[C@@H]2C(=O)Nc2ccc(F)c(F)c2F)c1F` [Compound 836], the pest or weed control at 250 g/ha (rice (Oryra sativa)) was 0%, the pest or weed control at 250 g/ha [1] was 65% and the pest or weed control at 250 g/ha [2] was 95%. It also gave a pest or weed control at 250 g/ha [3] of 0%, a pest or weed control at 125 g/ha [4] of 0% and a pest or weed control at 125 g/ha [5] of 30%. For the same molecule, the pest or weed control at 125 g/ha [6] was 70%, the pest or weed control at 125 g/ha [7] was 60% and the plant injury at 125 g/ha (corn (Zea mays)) was 70%. It also gave a pest or weed control at 125 g/ha [8] of 0%, a pest or weed control at 500 g/ha [8] of 0% and a pest or weed control at 125 g/ha [9] of 90%. The pest or weed control at 500 g/ha [9] was 90%, the pest or weed control at 125 g/ha [10] was 30% and the pest or weed control at 500 g/ha [10] was 60%. The pest or weed control at 125 g/ha (Kochia (Kochia scoparia)) was 90%, the pest or weed control at 500 g/ha (Kochia (Kochia scoparia)) was 90% and the pest or weed control at 125 g/ha [11] was 90%. For the same molecule, the pest or weed control at 500 g/ha [11] was 80%, the pest or weed control at 125 g/ha [12] was 90% and the pest or weed control at 500 g/ha [12] was 90%.
`Cc1c(F)cccc1NC(=O)[C@H]1C(=O)N(C)C[C@@H]1c1cc(F)c(F)c(F)c1` [Compound 867] gave a pest or weed control at 250 g/ha (rice (Oryra sativa)) of 30%, a pest or weed control at 250 g/ha [1] of 65% and a pest or weed control at 250 g/ha [2] of 100%. For the same molecule, the pest or weed control at 250 g/ha [3] was 30%, the pest or weed control at 125 g/ha [4] was 0% and the pest or weed control at 125 g/ha [5] was 0%. It also gave a pest or weed control at 125 g/ha [6] of 30%, a pest or weed control at 125 g/ha [7] of 20% and a plant injury at 125 g/ha (corn (Zea mays)) of 60%. For the same molecule, the pest or weed control at 125 g/ha [8] was 0%, the pest or weed control at 500 g/ha [8] was 30% and the pest or weed control at 125 g/ha [9] was 90%. The pest or weed control at 500 g/ha [9] was 90%, the pest or weed control at 125 g/ha [10] was 0% and the pest or weed control at 500 g/ha [10] was 30%. It also gave a pest or weed control at 125 g/ha (Kochia (Kochia scoparia)) of 50%, a pest or weed control at 500 g/ha (Kochia (Kochia scoparia)) of 70% and a pest or weed control at 125 g/ha [11] of 60%. It also gave a pest or weed control at 500 g/ha [11] of 60%, a pest or weed control at 125 g/ha [12] of 90% and a pest or weed control at 500 g/ha [12] of 90%.
`O=C1NC[C@H](c2ccc3c(c2)CCO3)[C@H]1C(=O)Nc1ccc(F)cc1F` [Compound 902] was tested, and the pest or weed control at 250 g/ha (rice (Oryra sativa)) was 0%, the pest or weed control at 250 g/ha [1] was 0% and the pest or weed control at 250 g/ha [2] was 75%. For the same molecule, the pest or weed control at 250 g/ha [3] was 0%, the pest or weed control at 125 g/ha [4] was 0% and the pest or weed control at 125 g/ha [5] was 0%. The pest or weed control at 125 g/ha [6] was 0%, the pest or weed control at 125 g/ha [7] was 0% and the plant injury at 125 g/ha (corn (Zea mays)) was 0%. For the same molecule, the pest or weed control at 125 g/ha [8] was 0%, the pest or weed control at 500 g/ha [8] was 0% and the pest or weed control at 125 g/ha [9] was 40%. The pest or weed control at 500 g/ha [9] was 90%, the pest or weed control at 125 g/ha [10] was 0% and the pest or weed control at 500 g/ha [10] was 0%. For the same molecule, the pest or weed control at 125 g/ha (Kochia (Kochia scoparia)) was 0%, the pest or weed control at 500 g/ha (Kochia (Kochia scoparia)) was 0% and the pest or weed control at 125 g/ha [11] was 0%. The pest or weed control at 500 g/ha [11] was 20%, the pest or weed control at 125 g/ha [12] was 30% and the pest or weed control at 500 g/ha [12] was 90%.
